Patent publication US7109296B2, “Human 5-HT3-C protein” (Ortho-McNeil Pharmaceutical, Inc., priority 1999, dated 2006)

Target: T1, long form of human 5-HT3-A together with 5-HT3-C (Homo sapiens, UniProt P46098+Q8WXA8)
T1 construct: Characterization of the Function of Protein Encoded by p5HT3CR in Xenopus oocvtes; expressed in transfected cells; host or cells: Xenopus laevis oocytes co-injected with cRNAs
T1 sequence (P46098 24-510 isoform P46098-2): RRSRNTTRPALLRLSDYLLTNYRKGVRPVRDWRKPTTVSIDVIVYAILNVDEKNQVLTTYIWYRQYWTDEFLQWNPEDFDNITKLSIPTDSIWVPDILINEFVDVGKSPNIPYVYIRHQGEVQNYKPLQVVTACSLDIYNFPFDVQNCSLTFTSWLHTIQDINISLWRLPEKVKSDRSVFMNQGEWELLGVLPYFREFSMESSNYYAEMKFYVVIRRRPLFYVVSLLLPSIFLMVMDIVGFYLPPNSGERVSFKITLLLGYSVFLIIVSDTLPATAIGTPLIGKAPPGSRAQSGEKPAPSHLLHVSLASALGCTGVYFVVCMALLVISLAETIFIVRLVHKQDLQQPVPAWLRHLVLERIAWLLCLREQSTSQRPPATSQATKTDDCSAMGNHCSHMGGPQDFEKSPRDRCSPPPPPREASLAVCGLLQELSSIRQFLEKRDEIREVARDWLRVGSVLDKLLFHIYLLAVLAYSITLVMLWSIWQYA
T1 sequence (Q8WXA8 28-447): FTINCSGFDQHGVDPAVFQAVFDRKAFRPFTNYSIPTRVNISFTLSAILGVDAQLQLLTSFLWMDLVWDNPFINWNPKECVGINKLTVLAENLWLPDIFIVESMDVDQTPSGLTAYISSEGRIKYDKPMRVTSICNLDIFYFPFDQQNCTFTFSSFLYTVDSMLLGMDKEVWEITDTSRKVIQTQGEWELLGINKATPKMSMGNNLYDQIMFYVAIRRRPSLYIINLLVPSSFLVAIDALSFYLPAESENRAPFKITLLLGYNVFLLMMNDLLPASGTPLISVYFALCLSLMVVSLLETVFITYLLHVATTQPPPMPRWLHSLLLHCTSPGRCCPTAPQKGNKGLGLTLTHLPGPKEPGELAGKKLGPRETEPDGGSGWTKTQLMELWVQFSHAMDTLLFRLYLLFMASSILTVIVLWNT
Test: Two-electrode voltage clamp, oocytes co-injected with long form of human 5-HT3-A and 5-HT3-C
Type: cell-based
Details: 10 μM; n=2
Description: Characterization of the Function of Protein Encoded by p5HT3CR in Xenopus oocvtes Xenopus laevis oocytes were prepared and injected using standard methods previously described and known in the art (Fraser et al., 1993). Ovarian lobes from adult female Xenopus laevis (Nasco, Fort Atkinson, Wis.) were teased apart, rinsed several times in nominally Ca-free saline containing (in mM): NaCl 82.5, KCl 2.5, MgCl2 1, HEPES 5, adjusted to pH 7.0 with NaOH(OR-2), and gently shaken in OR-2 containing 0.2% collagenase Type 1 (ICN Biomedicals, Aurora, Ohio) for 2–5 hours. When approximately 50% of the follicular layers were removed, Stage V and VI oocytes were selected and rinsed in media consisting of 75% OR-2 and 25% ND-96. The ND-96 contained (in mM): NaCl 100, KCl 2, MgCl2 1, CaCl2 1.8, HEPES 5, Na pyruvate 2.5, gentamicin (50 ug/ml), adjusted to pH 7.0 with NaOH. […] Whole cell agonist-induced currents were measured 1–14 days after injection with a conventional two-electrode voltage clamp (GeneClamp500, Axon Instruments, Foster City, Calif.) using standard methods previously described and known in the art (Dascal, 1987). […]

NCCc1c[nH]c2ccc(O)cc12 [5-HT, 5-hydroxytryptamine] was tested, and the “sensitivity of oocytes to agonist” value was “insensitive”.
